Measurements reported in patent US11459306B2, “Compounds, compositions, and methods for treating T-cell acute lymphoblastic leukemia” (The Trustees of Columbia University in the City of New York, priority 2017, dated 2022).

Tests used:
[1] = tested on: T-ALL cell line; test: T-ALL cell viability / cell death; assay type: cell-based, murine
Experimental: Compounds DWL-PI3K-1, DWL-PI3K-2, DWL-PI3K-3, DWL-PI3K-4, DWL-PI3K-5, DWL-PI3K-6 and DWL-PI3K-7, and reference compounds CAL-130, tenalisib, duvelisib were evaluated for efficacy (cell viability by measuring ATP (CellTiter-Glo) or propidium iodide (PI) uptake) against a number of cancer cells, including LMO-2-007, OCI-LY-10, HH, H9, PF382 and CCRF-CEM.

[2] = tested on: T-ALL; test: Mice with genetically induced T-ALL expressing luciferase treated with DWL-PI3K-3; assay type: in vivo; conditions: 10 mg/kg every 12 h for 7 days; luciferin signal and Ki67/thy1.2 positive population
[3] = Pharmacokinetics relative to CAL-130; assay type: in vivo
[4] = molecular target: T1, PIK3CD (Homo sapiens, UniProt O00329); test: KINOMEscan competition binding assay (DiscoverX); conditions: DiscoveRx gene symbol PIK3CD (b251 prints: PI3Kγ)
T1 construct: purchased DiscoverX (KINOMEscan); host or cells: E. coli BL21-derived host (T7 phage) or HEK-293
T1 sequence (O00329 1-1044): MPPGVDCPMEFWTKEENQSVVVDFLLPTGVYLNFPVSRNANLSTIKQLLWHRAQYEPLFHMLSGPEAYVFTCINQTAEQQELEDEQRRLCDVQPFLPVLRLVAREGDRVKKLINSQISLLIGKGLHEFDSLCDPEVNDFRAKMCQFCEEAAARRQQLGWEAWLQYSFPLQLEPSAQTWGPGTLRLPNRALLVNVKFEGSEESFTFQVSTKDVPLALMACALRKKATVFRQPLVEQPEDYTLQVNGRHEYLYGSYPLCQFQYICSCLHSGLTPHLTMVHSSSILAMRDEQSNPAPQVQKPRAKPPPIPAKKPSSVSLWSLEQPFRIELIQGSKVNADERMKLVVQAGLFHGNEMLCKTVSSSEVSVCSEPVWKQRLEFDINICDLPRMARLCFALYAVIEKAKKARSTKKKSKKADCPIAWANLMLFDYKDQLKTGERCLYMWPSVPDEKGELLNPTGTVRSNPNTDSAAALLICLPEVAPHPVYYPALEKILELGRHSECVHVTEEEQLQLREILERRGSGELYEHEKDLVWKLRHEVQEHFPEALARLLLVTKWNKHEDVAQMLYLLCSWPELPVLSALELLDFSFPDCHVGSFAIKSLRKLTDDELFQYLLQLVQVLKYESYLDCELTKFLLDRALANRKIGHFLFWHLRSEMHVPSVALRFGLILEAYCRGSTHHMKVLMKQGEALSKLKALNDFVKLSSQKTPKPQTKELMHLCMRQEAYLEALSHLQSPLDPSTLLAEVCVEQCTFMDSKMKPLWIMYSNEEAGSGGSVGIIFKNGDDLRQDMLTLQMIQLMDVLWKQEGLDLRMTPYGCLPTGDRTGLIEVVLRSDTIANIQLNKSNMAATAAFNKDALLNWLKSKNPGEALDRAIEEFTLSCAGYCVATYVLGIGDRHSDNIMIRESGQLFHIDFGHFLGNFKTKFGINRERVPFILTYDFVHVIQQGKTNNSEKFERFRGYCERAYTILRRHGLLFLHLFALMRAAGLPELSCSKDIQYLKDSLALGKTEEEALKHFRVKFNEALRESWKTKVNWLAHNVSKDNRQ
Experimental: (§1) The compounds were tested using KINOMEscan™ (DiscoverX), which is based on a competition binding assay that quantitatively measures the ability of a compound to compete with an immobilized, active-site directed ligand. The assay is performed by combining three components: DNA-tagged kinase; immobilized ligand; and a test compound. The ability of the test compound to compete with the immobilized ligand is measured via quantitative PCR of the DNA tag.
(§2) For most assays, kinase-tagged T7 phage strains were prepared in an E. coli host derived from the BL21 strain. E. coli were grown to log-phase and infected with T7 phage and incubated with shaking at 32° C. until lysis. The lysates were centrifuged and filtered to remove cell debris. The remaining kinases were produced in HEK-293 cells and subsequently tagged with DNA for qPCR detection. Streptavidin-coated magnetic beads were treated with biotinylated small molecule ligands for 30 minutes at room temperature to generate affinity resins for kinase assays. The liganded beads were blocked with excess biotin and washed with blocking buffer (SeaBlock (Pierce), 1% BSA, 0.05% Tween 20, 1 mM DTT) to remove unbound ligand and to reduce non-specific binding. Binding reactions were assembled by combining kinases, liganded affinity beads, and test compounds in 1× binding buffer (20% SeaBlock, 0.17×PBS, 0.05% Tween 20, 6 mM DTT). Test compounds were prepared as 111× stocks in 100% DMSO. Kds were determined using an 11-point 3-fold compound dilution series with three DMSO control points. All compounds for Kd measurements are distributed by acoustic transfer (non-contact dispensing) in 100% DMSO. The compounds were then diluted directly into the assays such that the final concentration of DMSO was 0.9%. All reactions performed in polypropylene 384-well plate. Each was a final volume of 0.02 ml. The assay plates were incubated at room temperature with shaking for 1 hour and the affinity beads were washed with wash buffer (1×PBS, 0.05% Tween 20). The beads were then re-suspended in elution buffer (1×PBS, 0.05% Tween 20, 0.5 μM non-biotinylated affinity ligand) and incubated at room temperature with shaking for 30 minutes. The kinase concentration in the eluates was measured by qPCR.
(§3) An 11-point 3-fold serial dilution of each test compound was prepared in 100% DMSO at 100× final test concentration and subsequently diluted to 1× in the assay (final DMSO concentration=1%). Most Kds were determined using a compound top concentration=30,000 nM. If the initial Kd determined was <0.5 nM (the lowest concentration tested), the measurement was repeated with a serial dilution starting at a lower top concentration.
(§4) Binding constants (Kds) were calculated with a standard dose-response curve using the Hill equation: […]
(§5) The Hill Slope was set to −1. Curves were fitted using a non-linear least square fit with the Levenberg-Marquardt algorithm.

[5] = molecular target: T2, PIK3CB (PI3Kβ) (Homo sapiens, UniProt P42338); test: KINOMEscan competition binding assay (DiscoverX); conditions: DiscoveRx gene symbol PIK3CB (PI3Kβ)
T2 construct: purchased DiscoverX (KINOMEscan); host or cells: E. coli BL21-derived host (T7 phage) or HEK-293
Experimental: as §1, §2, §3, §4, §5

[6] = molecular target: T3, PIK3CA (PI3Kα) (Homo sapiens, UniProt P42336); test: KINOMEscan competition binding assay (DiscoverX); conditions: DiscoveRx gene symbol PIK3CA (PI3Kα)
T3 construct: purchased DiscoverX (KINOMEscan); host or cells: E. coli BL21-derived host (T7 phage) or HEK-293
Experimental: as §1, §2, §3, §4, §5

[7] = molecular target: T4, PIK3CG (Homo sapiens, UniProt P48736); test: KINOMEscan competition binding assay (DiscoverX); conditions: DiscoveRx gene symbol PIK3CG (b251 prints: PI3Kδ)
T4 construct: purchased DiscoverX (KINOMEscan); host or cells: E. coli BL21-derived host (T7 phage) or HEK-293
Experimental: as §1, §2, §3, §4, §5

T2 sequence (P42338 whole entry): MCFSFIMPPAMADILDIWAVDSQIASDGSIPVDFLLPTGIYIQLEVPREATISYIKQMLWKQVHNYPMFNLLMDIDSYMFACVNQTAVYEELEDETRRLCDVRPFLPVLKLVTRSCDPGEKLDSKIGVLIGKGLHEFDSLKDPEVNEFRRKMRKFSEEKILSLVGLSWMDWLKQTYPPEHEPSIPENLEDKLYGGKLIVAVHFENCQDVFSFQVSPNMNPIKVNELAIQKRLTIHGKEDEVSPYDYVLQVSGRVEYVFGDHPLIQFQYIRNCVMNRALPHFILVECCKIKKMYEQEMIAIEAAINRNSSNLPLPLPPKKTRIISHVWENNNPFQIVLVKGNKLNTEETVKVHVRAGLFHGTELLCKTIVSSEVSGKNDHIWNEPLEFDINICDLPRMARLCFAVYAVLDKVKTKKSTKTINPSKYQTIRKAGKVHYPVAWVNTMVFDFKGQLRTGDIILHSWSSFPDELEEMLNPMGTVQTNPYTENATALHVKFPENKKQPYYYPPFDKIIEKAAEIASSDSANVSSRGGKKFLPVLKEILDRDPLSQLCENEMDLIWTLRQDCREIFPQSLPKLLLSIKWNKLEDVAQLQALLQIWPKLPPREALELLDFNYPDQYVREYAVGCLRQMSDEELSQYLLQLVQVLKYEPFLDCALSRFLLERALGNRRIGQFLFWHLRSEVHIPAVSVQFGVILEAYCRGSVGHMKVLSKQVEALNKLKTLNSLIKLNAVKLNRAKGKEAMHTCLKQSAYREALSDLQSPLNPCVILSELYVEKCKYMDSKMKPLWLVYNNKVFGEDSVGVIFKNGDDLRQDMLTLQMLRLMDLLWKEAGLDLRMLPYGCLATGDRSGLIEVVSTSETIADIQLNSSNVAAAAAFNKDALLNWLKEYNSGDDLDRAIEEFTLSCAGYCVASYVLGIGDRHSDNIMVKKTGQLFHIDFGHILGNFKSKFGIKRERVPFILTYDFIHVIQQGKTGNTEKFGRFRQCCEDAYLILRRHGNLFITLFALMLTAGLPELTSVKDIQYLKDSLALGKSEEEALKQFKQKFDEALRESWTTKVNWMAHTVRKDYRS
T3 sequence (P42336 whole entry): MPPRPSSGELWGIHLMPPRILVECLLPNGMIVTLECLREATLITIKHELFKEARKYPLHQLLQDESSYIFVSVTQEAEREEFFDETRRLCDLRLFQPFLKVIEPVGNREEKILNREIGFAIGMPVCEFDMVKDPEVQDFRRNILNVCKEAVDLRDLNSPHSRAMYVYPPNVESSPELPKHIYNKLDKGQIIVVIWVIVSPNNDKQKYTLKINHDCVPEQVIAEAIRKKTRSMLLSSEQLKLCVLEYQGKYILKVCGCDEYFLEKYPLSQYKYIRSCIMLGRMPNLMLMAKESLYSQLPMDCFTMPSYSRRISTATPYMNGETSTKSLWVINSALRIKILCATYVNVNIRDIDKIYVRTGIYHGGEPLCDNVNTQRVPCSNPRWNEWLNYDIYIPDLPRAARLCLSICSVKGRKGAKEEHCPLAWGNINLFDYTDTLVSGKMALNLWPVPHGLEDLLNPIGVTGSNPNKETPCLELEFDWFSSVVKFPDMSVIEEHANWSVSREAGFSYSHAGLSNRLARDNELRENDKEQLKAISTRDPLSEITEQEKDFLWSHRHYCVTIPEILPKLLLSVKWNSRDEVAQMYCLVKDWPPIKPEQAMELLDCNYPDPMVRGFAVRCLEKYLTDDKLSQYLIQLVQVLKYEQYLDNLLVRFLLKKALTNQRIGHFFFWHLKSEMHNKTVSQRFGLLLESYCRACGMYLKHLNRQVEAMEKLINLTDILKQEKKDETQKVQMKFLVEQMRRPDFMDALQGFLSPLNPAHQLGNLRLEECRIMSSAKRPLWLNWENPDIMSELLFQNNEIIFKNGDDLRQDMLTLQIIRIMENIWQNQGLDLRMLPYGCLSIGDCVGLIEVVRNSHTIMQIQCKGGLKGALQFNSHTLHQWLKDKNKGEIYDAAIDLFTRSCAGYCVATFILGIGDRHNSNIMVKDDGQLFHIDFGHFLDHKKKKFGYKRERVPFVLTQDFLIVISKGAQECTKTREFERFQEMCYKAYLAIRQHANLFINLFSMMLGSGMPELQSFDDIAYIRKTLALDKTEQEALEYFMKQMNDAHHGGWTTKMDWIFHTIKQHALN
T4 sequence (P48736 whole entry): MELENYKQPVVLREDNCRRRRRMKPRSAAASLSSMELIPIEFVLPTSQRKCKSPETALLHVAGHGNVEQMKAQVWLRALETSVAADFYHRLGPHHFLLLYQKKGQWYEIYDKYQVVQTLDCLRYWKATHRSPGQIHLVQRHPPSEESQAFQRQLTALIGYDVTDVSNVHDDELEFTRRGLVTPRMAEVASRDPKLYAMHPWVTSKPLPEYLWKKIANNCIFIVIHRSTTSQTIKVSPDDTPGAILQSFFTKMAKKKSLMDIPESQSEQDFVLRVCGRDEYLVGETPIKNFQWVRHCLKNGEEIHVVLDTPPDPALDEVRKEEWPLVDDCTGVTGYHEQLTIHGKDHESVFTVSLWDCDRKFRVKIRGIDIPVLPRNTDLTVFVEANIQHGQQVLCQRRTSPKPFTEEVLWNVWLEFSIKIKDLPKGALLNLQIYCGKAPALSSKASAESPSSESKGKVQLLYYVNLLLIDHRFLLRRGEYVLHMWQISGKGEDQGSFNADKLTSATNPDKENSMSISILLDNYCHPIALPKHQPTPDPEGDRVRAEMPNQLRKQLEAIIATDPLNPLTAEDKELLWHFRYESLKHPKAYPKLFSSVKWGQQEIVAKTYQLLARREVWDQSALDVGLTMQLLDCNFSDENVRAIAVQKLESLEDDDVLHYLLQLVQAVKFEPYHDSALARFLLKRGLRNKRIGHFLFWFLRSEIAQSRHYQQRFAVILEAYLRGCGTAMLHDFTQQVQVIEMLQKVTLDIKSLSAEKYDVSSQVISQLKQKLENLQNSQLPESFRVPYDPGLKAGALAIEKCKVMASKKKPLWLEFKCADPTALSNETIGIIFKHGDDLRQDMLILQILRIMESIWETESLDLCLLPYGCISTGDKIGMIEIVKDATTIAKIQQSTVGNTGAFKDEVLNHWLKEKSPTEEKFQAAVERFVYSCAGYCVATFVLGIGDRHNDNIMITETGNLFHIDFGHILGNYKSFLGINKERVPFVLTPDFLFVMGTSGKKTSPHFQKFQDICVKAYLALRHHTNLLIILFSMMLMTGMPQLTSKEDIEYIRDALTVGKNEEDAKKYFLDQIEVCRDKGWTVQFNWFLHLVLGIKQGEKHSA

pharmacokinetics [3]: better pharmacokinetics
Kd [4]: 0.14 nM
Kd [5]: 0.084 nM
Kd [6]: 4 nM
Kd [7]: 0.12 nM
Structure (SMILES): C[C@H](Nc1nc(N)nc(N)c1C#N)c1cc2cccc(Cl)c2c(=O)n1-c1ccccc1 [DWL-PI3K-3, (S)-2,4-diamino-6-((1-(8-chloro-1-oxo-2-phenyl-1,2-dihydroisoquinolin-3-yl)ethyl)amino)pyrimidine-5-carbonitrile]
efficacy in inducing T-ALL cell death relative to CAL-130 ([1]; cultured T-ALL cells): greater efficacy than CAL-130
amount needed relative to CAL-130 to achieve a similar reduction in tumor cell survival ([1]; relative to CAL-130): about 10 fold less
tumor burden [2]: significant reduction in tumor burden
